Patent US20250297015A1, “DRUG CONDITIONING REGIMEN FOR SICKLE CELL DISEASE” (NEW YORK BLOOD CENTER, INC., priority 2022, published 2025)
“Also recorded” adds a separate entry of the source.

Tests used:
Assay type in all cases: in vivo
[1] = system: bone marrow HPCs and hematopoietic stem cells (HSCs); test: Bone marrow HPCs and HSCs with and without plerixafor in SCD mouse model; conditions: SS Townes mice
Experimental: (§1) This study uses a SCD mouse model, SS Townes mice, to evaluate the effects of GBT-1118, the murine analog of voxelotor, to mobilize hematopoietic progenitor cells (HPC). GBT-1118 (approximately 16 mg/mouse/day) was administered via chow (4 grams of GBT-1118 per kg of chow) daily for a month. The mice were then administered a single dose of plerixafor (10 mg/kg) via subcutaneous injection. […] Peripheral blood was collected in all groups prior to and two-and three-weeks post treatment with GBT-1118 (or control) to assess hemoglobin (Hgb), hematocrit (Hct), aged neutrophils, and circulating HPCs. One to two hrs after plerixafor, peripheral blood was collected for circulating HPC (LSKF) enumeration. Assay results in the groups are compared using ANOVA or Kruskal-Wallis testing.
(§2) Also evaluated were bone marrow HPCs and hematopoietic stem cells (HSCs) with and without plerixafor and peripheral blood inflammatory markers (aged neutrophils, sVAM-1, P-selectin, and E-selectin) with and without plerixafor.
Bone marrow LSK (Lin^−Sca1^+ckit^+) is a less HSC-specific measure than bone marrow HSC (Lin^−Sca1^+ckit+CD48^−CD150^+); the markers Flt3 and CD135 are not present in bone marrow as they are in peripheral blood.

[2] = system: peripheral blood inflammatory markers; test: Peripheral blood inflammatory markers (aged neutrophils, sVCAM-1, P-selectin, E-selectin) in SCD mouse model
Experimental: as §1, §2
There is an increase in the aged neutrophil population in SCD.
There is evidence that SCD is associated with a chronic inflammatory state. Therefore, inflammatory markers (sVCAM-1, P-selectin, and E-selectin) in the peripheral blood of mice treated with GBT-1118 alone or with plerixafor were evaluated. […] This increase may be related to increased WBC and absolute neutrophil counts (ANC). Plasma P-selectin and E-selectin were not increased with GBT-1118 alone or with plerixafor (FIGS. 6B and 6C).

[3] = system: peripheral blood hematopoietic progenitor cells (HPC), LSKF cells; test: Mobilization of peripheral blood hematopoietic progenitor cells (LSKF) in SCD mouse model
Experimental: as §1
Gating with and without CD45^+ was performed due to the erythroid hyperplasia seen in SCD, where CD45^+ expression decreases along with erythroid maturation (Boulais et al. Immunity 49:627-639, 2018) and the degree of erythroid hyperplasia in each mouse was unknown. The percentage of CD45^+ cells ranged from 60-80% per sample. […] As red cell transfusion tends to decrease circulating hematopoietic stem cells (HSCs) (Tang A et al, Blood 2021), this may be due to the increased bone marrow HSCs (FIGS. 4A and 4B) spilling into peripheral blood due to residual mesenchymal stem cell dysfunction.

SS Townes mice = test: Peripheral blood response (Hb, Hct, reticulocytes, WBC) to GBT-1118 in SCD mouse model
Experimental: as §1

O=Cc1c(O)cccc1OC[C@@H]1CCCCN1C(=O)c1cccnc1 [GBT-1118]
bone marrow HSCs, as % of Lin- cells ([1]; GBT-1118 alone versus control (FIG. 4A)): significantly increased | total number of bone marrow HSC per femur ([1]; GBT-1118 versus control (FIG. 4B)): trend towards an increase; also recorded: trend towards increased | plasma P-selectin ([2]; GBT-1118 alone (FIG. 6B)): not increased | plasma E-selectin ([2]; GBT-1118 alone (FIG. 6C)): not increased | plasma P-selectin ([2]; GBT-1118 with plerixafor (FIG. 6B)): not increased | plasma E-selectin ([2]; GBT-1118 with plerixafor (FIG. 6C)): not increased | plasma sVCAM-1 ([2]; after GBT-1118 treatment (FIG. 6A)): small but significant increase | peripheral blood aged neutrophils (CXCR4high CD62Llow) ([2]; post-mobilization with plerixafor, GBT-1118 versus control (FIG. 5A-B)): not statistically significant | peripheral blood LSKF cell concentration ([3]; SS Townes mice, compared to control (FIG. 3B)): significantly increased | percentage of peripheral blood LSKF (Lin-Sca1+ckit+Flt3-CD135-) cells mobilized ([3]; with CD45+ gating, plerixafor mobilization, 1-2 h after plerixafor, compared to control animals (FIGS. 3A and 3C)): higher percentage | hemoglobin (Hb) (SS Townes mice; GBT-1118 via chow approx. 16 mg/mouse/day, peripheral blood before vs 2 and 3 weeks after treatment (FIG. 1A)): increase | hematocrit (Hct) (SS Townes mice; GBT-1118 via chow, before vs 2 and 3 weeks after treatment (FIG. 1B)): increase | percentage of reticulocytes (retic %) (SS Townes mice; GBT-1118 via chow, before vs 2 and 3 weeks after treatment (FIG. 1C)): decrease | number of white blood cells (WBC) (SS Townes mice; GBT-1118 via chow, before vs 2 and 3 weeks after treatment (FIG. 1D)): essentially unchanged
